Test results taken from publication PMC6199744, “Development of Chemical Proteomics for the Folateome and Analysis of the Kinetoplastid Folateome” (ACS Infectious Diseases, 2018).
Read-outs that look alike come from different tables or passages of the source.

Experiments:
Format in all cases: binding
[1] = biological target: T1, HeLa cell extract proteins (Homo sapiens, UniProt P41252)
T1 construct: endogenous in cells; host or cells: HeLa cell extract
T1 sequence (P41252 1-1262): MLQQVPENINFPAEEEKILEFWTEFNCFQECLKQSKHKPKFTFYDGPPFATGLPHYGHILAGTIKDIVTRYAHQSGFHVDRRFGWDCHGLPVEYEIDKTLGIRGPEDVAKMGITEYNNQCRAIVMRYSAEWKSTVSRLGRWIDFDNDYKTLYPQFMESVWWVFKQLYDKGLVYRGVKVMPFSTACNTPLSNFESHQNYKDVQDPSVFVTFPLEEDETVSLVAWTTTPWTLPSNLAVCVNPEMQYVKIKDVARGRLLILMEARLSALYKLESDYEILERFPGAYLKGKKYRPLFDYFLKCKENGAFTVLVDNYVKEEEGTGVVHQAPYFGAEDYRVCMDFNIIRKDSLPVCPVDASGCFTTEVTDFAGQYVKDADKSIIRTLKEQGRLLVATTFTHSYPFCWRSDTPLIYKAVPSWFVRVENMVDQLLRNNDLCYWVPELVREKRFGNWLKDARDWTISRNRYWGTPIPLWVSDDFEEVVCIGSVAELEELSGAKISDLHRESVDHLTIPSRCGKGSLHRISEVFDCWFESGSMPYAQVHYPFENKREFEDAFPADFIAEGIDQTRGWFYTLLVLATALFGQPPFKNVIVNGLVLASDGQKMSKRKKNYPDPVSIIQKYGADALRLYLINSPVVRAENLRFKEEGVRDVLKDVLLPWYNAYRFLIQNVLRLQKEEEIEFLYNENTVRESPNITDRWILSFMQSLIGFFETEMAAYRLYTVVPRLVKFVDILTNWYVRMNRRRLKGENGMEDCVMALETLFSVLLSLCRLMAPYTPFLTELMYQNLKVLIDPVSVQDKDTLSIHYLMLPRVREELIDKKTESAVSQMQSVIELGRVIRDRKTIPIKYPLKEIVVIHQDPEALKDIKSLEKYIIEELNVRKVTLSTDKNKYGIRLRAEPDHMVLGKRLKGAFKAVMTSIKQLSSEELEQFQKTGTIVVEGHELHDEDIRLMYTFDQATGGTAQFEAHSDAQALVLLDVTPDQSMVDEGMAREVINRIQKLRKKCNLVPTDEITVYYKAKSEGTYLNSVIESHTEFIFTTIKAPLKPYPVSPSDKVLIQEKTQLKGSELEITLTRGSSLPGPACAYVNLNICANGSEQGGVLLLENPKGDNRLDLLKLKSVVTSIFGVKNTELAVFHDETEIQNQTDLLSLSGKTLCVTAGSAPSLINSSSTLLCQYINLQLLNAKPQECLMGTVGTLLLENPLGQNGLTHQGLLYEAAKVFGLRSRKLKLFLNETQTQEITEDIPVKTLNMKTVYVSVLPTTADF

[2] = biological target: T2, HeLa cell extract proteins (Homo sapiens, UniProt O00148)
T2 construct: endogenous in cells; host or cells: HeLa cell extract

[3] = biological target: T3, HeLa cell extract proteins (Homo sapiens, UniProt Q9H000)
T3 construct: endogenous in cells; host or cells: HeLa cell extract
T3 sequence (Q9H000 1-416): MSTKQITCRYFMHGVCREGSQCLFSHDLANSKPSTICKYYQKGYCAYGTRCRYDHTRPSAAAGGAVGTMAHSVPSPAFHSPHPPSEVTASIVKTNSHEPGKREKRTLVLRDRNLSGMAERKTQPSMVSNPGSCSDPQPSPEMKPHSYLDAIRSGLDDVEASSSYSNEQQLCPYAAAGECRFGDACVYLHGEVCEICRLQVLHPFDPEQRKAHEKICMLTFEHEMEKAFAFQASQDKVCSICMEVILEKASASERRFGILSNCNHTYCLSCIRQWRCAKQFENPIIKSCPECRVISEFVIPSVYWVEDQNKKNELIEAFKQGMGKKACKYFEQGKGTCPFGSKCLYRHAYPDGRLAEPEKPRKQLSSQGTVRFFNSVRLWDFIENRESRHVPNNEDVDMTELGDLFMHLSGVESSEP

[4] = biological target: T4, HeLa cell extract proteins (Homo sapiens, UniProt P09972)
T4 construct: endogenous in cells; host or cells: HeLa cell extract
T4 sequence (P09972 1-364): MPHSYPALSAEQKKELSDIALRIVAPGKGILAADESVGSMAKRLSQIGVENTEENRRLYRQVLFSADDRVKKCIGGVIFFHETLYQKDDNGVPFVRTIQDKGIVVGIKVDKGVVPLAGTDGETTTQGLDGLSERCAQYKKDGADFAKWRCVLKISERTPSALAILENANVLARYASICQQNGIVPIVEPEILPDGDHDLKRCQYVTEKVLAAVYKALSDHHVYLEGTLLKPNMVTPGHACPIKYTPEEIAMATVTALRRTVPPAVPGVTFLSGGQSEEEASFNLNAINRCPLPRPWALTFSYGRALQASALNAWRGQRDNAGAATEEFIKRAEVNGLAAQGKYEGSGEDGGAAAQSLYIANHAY

[5] = biological target: T5, HeLa cell extract proteins (Homo sapiens, UniProt Q03393)
T5 construct: endogenous in cells; host or cells: HeLa cell extract
T5 sequence (Q03393 1-145): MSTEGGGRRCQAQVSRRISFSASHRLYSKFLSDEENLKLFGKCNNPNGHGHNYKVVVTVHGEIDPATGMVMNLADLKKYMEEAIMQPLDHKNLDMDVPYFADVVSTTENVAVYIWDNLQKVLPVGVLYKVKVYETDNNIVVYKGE

[6] = HeLa, protein DDX39 (CDNA FLJ55484, HIGHLY SIMILAR TO ATP-DEPENDENT RNA HELICASE DDX39.)
[7] = HeLa, protein ALDOC (FRUCTOSE-BI[…] C.)
[8] = HeLa, protein MKRN2 (MAKORIN-2)

T2 sequence (O00148 whole entry): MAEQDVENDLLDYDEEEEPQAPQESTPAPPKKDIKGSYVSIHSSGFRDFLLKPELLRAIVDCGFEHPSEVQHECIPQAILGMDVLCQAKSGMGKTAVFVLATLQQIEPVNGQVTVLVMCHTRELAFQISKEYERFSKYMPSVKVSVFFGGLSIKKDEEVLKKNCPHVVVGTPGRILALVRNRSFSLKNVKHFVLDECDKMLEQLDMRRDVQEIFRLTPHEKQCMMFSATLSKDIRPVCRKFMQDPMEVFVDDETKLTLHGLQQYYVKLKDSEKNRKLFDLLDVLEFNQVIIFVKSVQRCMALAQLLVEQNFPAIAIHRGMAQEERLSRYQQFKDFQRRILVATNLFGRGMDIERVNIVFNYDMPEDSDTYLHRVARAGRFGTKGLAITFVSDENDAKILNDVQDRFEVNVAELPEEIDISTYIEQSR

Row | Structure (SMILES) | fold changes relative to vehicle control ([1]; HeLa, protein IARS) | fold changes relative to vehicle control [2, 6] [fold] | fold changes relative to vehicle control ([3]; captured protein MKRN2, HeLa) | fold changes relative to vehicle control ([5]; captured protein PTS, HeLa) | fold changes relative to vehicle control ([1]; HeLa, captured protein IARS) | fold changes relative to vehicle control ([2]; HeLa, protein DDX39) | fold changes relative to vehicle control [3, 8] | fold changes relative to vehicle control ([4]; HeLa, protein ALDOC) | fold changes relative to vehicle control ([5]; protein PTS, HeLa) | other results
1 | Nc1nc2cccc(-c3ccccc3)c2n1Cc1ccc(Cl)c(Cl)c1 [compound 3] | 1.28 | 0.86 | 0.89 | 1.1 | – | – | – | – | – | fold changes relative to vehicle control [4, 7]: 1.23 fold
2 | NCCOCCOCC(=O)Nc1nc2ncc(CNc3ccc(C(=O)NC(CCC(=O)O)C(=O)O)cc3)nc2c(=O)[nH]1 (centres unmarked) [compound 6] | – | – | – | – | 1.03 | 1.17 | 0.92 | 1.06 | 0.39 | –
3 | Nc1nc2[nH]cc(CCc3ccc(C(=O)N[C@@H](CCC(=O)O)C(=O)O)cc3)c2c(=O)[nH]1 [PTX, pemetrexed] | – | – | – | – | – | – | – | – | – | fold changes relative to vehicle control [1]: 0.96; fold changes relative to vehicle control [2]: 0.99; fold changes relative to vehicle control [3]: 0.91; fold changes relative to vehicle control [4]: 1.04; fold changes relative to vehicle control [5]: 0.23
4 | Nc1nc2c(c(=O)[nH]1)N(C=O)C(CNc1ccc(C(=O)N[C@@H](CCC(=O)O)C(=O)O)cc1)CN2 (some centres unmarked) [LEU, leucovorin] | – | – | – | – | 1.01 | 1.07 | 1.02 | 0.9 | 0.83 | –
5 | CCCCCCOc1ccc(Cc2cnc(N)nc2N)cc1 [compound 1] | 1.15 | 1.22 | 0.9 | 0.72 | – | – | – | – | – | fold changes relative to vehicle control [4, 7]: 1.49 fold
6 | NCCCNc1ccc(C(=O)NC(CCC(=O)O)C(=O)O)cc1 (centres unmarked) [compound 7] | – | – | – | – | 1.1 | 0.88 | 0.98 | 1.12 | 1.03 | –
7 | CCCCCCOc1cccc(Cc2cnc(N)nc2N)c1 [compound 2] | 1.22 | 2.4 | 0.9 | 1.01 | – | – | – | – | – | fold changes relative to vehicle control ([4]; HeLa, protein ALDOC (FRUCTOSE-BISPHOSPHATE ALDOLASE C.)): 2.35 fold
